Data: ChEMBL document CHEMBL1127100, “Structure-activity relationships of a series of glycine antagonists related to 5,7-dichlorokynurenic acid and 3-(2-carboxy-6-chloroindol-3-yl)acetic acid” (Bioorg Med Chem Lett, 1993)
pIC50, pKi: −log10 of the molar value.

Tests used:
Glutamate NMDA receptor = assay: Tested for the ability to inhibit [3H]MK-801 binding to NMDA receptor of rat cortical membranes in the presence of glutamate (1 uM)
[1] = biological target: Glutamate receptor ionotropic, NMDA 1 (Rattus norvegicus, UniProt P35439); assay: Tested for the ability to displace [3H]glycine, by greater than 50%, from NMDA receptor of rat cortical membranes at a dose of 10 uM

Row | SMILES | pIC50 (Glutamate NMDA receptor) | pKi [1]
1 | O=C(O)CCc1c(C(=O)O)nc2cc(Cl)cc(Cl)c2c1O | 3.99 | 5.15
2 | O=C(O)Cc1c(C(=O)O)nc2ccccc2c1O | 4.08 | 4.83
3 | O=C(O)Cc1cc2ccccc2nc1C(=O)O | < 4.00 | < 4.00
4 | O=C(O)CCc1c(C(=O)O)[nH]c2cc(Cl)cc(Cl)c12 |  | 6.85

Results, then the compound that gave them:

Row | pIC50 (Glutamate NMDA receptor) | pKi [1] | SMILES
5 | 5.23 | 6.01 | O=C(O)c1cc2c(Cl)cc(Cl)cc2[nH]1
6 | 5.48 | 6.47 | O=C(O)Cc1c(C(=O)O)[nH]c2cc(Cl)cc(Cl)c12
7 | 5.45 | 6.19 | O=C(O)Cc1c(C(=O)O)nc2cc(Cl)cc(Cl)c2c1O
8 | 6.07 |  | O=C(O)c1cc(O)c2c(Cl)cc(Cl)cc2n1
